{"source": "patent US7695725B2", "about": "“Modified free-living microbes, vaccine compositions and methods of use thereof” (Aduro Biotech, priority 2003, dated 2010)", "system": "Listeria monocytogenes", "experiment": "Bacterial titer / log attenuation of Listeria after compound 1 treatment", "type": "cell-based", "conditions": "e.g. at 1 μM", "procedure": "A procedure was done similarly to Example 1 only using the compound β-alanine, N-(acridin-9-yl), 2-[bis(2-chloroethyl)amino]ethyl ester (Compound 1, ChemSyn, Harrisonville, Mo., see U.S. Pat. No. 6,093,725). The Listeria strains used were DP-L4056 and DP-L4017. Compound 1 (1 mM in acidic BBS (blood bank saline), 135 μl of 1.48 M H3PO4 per 100 mL BBS) was added to 5 mL of bacteria at 1×10^8 CFU/mL to concentrations of 0, 0.5, 1, 2, 5, and 10 μM and the samples incubated for 2 hours at room temperature. After the incubation, the bacterial titer and antigen presentation was assessed as per Example 1."}
{"smiles": "O=C(CCNc1c2ccccc2nc2ccccc12)OCCN(CCCl)CCCl", "note": "[compound 1, β-alanine, N-(acridin-9-yl), 2-[bis(2-chloroethyl)amino]ethyl ester]", "values": [{"measurement": "attenuation of proliferation with sufficient antigen presentation", "result": "effective"}]}
